# Measurements from US8210776B2, “Calcification method using calcifying bacteria” (Soletanche Freyssinet, priority 2007, dated 2012).
# Assays:
# [1] = tested on: Sporosarcina pasteurii—CIP 66.21 Pasteur; experiment: Degree of attachment in sand columns, chicory and/or divalent ion salt added before injection (Example 4); format: cell-based; conditions: 10 mM Ca(NO3)2 added to the culture medium; 20° C.
# Protocol: The columns were prepared in accordance with Example 3.
# The bacteria (Sporosarcina pasteurii—CIP 66.21 Pasteur) were cultured in a culture medium (1 L of laboratory water) containing 10 g of yeast extract, 3 g of NaCl, 2.4 g of urea, 0.1 g of MgCl2 and 0.0128 g of NiCl2. When the bacteria are at the end of the exponential phase, the following are added to the culture medium: • either a source of calcium (10 mM Ca(NO3)2); • or chicory in a proportion of 4 or 8 g/L; • or a source of calcium (10 mM Ca(NO3)2) and chicory in a proportion of 4 or 8 g/L.
# The whole was left to stir for one hour before being injected into the columns.
# The injection conditions are identical to those of Example 3. All the experiments were carried out at 20° C.
# The cumulative column inlet and outlet OD values are compared and expressed in the form of percentage loss of OD, which represents the degree of attachment of the bacteria in the column. FIG. 5 represents the degrees of attachment of the bacteria stimulated by the addition of chicory, of calcium salt or of both to the culture medium before injection.
# The protocol is identical to that of Example 4.1, with the calcium ions (Ca(NO3)2) being replaced with magnesium ions (Mg(NO3)2).
# [2] = tested on: S. pasteurii (CIP 66.21 Pasteur); experiment: Screening for sugars that can be assimilated, API strips (API 20 E and API 50CH); format: cell-based, Sporosarcina pasteurii; conditions: API strip analysis
# Text: The first step was to carry out a screening of the various sugars that exist, in order to identify that or those which is (are) assimilable and which stimulate EPS synthesis in Sporosarcina pasteurii, preferably without inhibiting urease synthesis.
# For this, two types of API strips were used: API 20 E and API 50CH. These tests are in the form of microtubes containing dehydrated substrates and which are inoculated with a bacterial suspension.
# Sporosarcina pasteurii = experiment: Culture with inulin/chicory replacing part of the yeast extract: attachment to glassware, growth, enzymatic activity; format: cell-based
# Text: In order to determine the amount of inulin necessary in order to act on the synthesis of urease and on the production of EPS in Sporosarcina pasteurii, a part of the nitrogenous carbon source (yeast extract) was replaced with chicory.
# [3] = tested on: Sporosarcina pasteurri—CIP 66.21 Pasteur; experiment: Degree of attachment of bacteria to Fontainebleau sand columns, chicory in the culture medium (Example 3); format: cell-based, Sporosarcina pasteurii; conditions: media with versus without chicory
# Protocol: The chicory used is powdered extract of freeze-dried chicory, derived from the root of Cichorium intibus and sold under the trade name “Chicorée soluble Leroux”. For this, two tests were carried out in parallel on columns:
# The columns were made up of a PVC tube 63 mm in diameter and 200 mm in height, positioned between two PVC bases. One centimeter of filter sand was placed at the two ends and the whole of the column was made up with Fontainebleau sand tamped down under water by tapping. The Fontainebleau sand is the NE34-grade sand from SIFRACO. The injections were carried out from top to bottom. […]
# Monitoring of the OD at the column outlet makes it possible to know the degree of attachment of the bacteria to the Fontainebleau sand. A calibration OD measurement was carried out beforehand on each of the media from which the bacteria were extracted in order to be free of differences in reading related to the medium itself. […]
# Since the column porosity volume is 250 mL, the detection of the first bacteria at the column outlet is carried out after having injected 250 mL of culture medium. The graphic representation of the cumulative OD at the column inlet and at the column outlet makes it possible to readily visualize the degree of attachment of the bacteria to the granular substrate. […] The outlet ODs are also measured every minute. […]
Molecule,Degree of attachment (%) [1],carbon source that can be assimilated by Sporosarcina pasteurii [2],adhesion of the bacteria to the laboratory glassware through the production of EPS (Sporosarcina pasteurii),growth of the bacteria (Sporosarcina pasteurii),bacterial growth (inlet OD) [3]
O=[N+]([O-])[O-].O=[N+]([O-])[O-].[Ca+2] [Ca(NO3)2],49.5%,–,–,–,–
Inulin,–,can be assimilated,demonstrated adhesion,more rapid,greater
